Results: ChEMBL document CHEMBL4414602, “Bipolaricins A-I, Ophiobolin-Type Tetracyclic Sesterterpenes from a Phytopathogenic Bipolaris sp. Fungus” (J Nat Prod, 2019)
Activity calls are given as the source filed them. The rule behind the calls is not given here.

Experiments:
A549 = test: Cytotoxicity against human A549 cells by MTT assay; assay type: cell-based
SW1990 = test: Cytotoxicity against human SW1990 cells by MTT assay; assay type: cell-based
RAW264.7 [1] = test: Cytotoxicity against mouse RAW264.7 cells at 40 uM by MTT assay; assay type: cell-based; conditions: raw264.7, 40 µM
HepG2 = test: Cytotoxicity against human HepG2 cells by MTT assay; assay type: cell-based
RAW264.7 [2] = test: Antiinflammatory activity in mouse RAW264.7 cells assessed as inhibition of LPS-induced nitric oxide production pretreated for 2 hrs followed by LPS challenge and measured after 12 hrs by Griess assay; assay type: functional, cell-based
MDA-MB-231 = test: Cytotoxicity against human MDA-MB-231 cells by MTT assay; assay type: cell-based
[3] = target: T1, 3-hydroxy-3-methylglutaryl-coenzyme A reductase (Homo sapiens, UniProt P04035); test: Inhibition of human HMGR using HMGCoA as substrate measured after 15 mins in presence of NADPH by UV microplate reader analysis
T1 sequence (P04035 whole entry): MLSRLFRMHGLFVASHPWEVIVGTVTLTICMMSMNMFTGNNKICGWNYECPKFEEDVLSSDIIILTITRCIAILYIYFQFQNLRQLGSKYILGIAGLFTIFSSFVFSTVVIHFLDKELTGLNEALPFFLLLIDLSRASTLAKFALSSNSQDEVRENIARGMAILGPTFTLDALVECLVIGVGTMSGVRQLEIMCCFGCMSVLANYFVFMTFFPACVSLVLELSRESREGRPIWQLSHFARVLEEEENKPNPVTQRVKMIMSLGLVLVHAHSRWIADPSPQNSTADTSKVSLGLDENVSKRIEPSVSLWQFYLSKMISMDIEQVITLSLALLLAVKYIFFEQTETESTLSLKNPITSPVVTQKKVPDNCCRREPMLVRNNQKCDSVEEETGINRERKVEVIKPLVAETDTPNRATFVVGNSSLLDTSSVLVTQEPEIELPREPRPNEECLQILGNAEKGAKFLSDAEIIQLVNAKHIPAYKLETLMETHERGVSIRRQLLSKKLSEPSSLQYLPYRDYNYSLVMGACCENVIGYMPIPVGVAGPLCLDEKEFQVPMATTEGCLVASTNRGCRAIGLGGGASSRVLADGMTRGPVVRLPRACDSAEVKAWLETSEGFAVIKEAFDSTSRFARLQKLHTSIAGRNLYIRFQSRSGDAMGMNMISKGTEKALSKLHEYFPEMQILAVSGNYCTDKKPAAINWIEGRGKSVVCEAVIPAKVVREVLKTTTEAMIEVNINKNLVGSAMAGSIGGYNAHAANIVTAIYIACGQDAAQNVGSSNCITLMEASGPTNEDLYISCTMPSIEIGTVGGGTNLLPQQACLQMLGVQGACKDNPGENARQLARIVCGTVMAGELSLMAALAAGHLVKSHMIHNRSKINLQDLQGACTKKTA

RAW264.7 [4] = test: Antiinflammatory activity in mouse RAW264.7 cells assessed as inhibition of LPS-induced RANTES production at 5 to 10 uM pretreated for 2 hrs followed by LPS challenge and measured after 12 hrs by ELISA; assay type: functional, cell-based
RAW264.7 [5] = test: Antiinflammatory activity in mouse RAW264.7 cells assessed as increase of LPS-induced IL-3 production at 5 to 10 uM pretreated for 2 hrs followed by LPS challenge and measured after 12 hrs by ELISA; assay type: functional, cell-based
RAW264.7 [6] = test: Antiinflammatory activity in mouse RAW264.7 cells assessed as inhibition of LPS-induced TNFalpha production at 5 to 10 uM pretreated for 2 hrs followed by LPS challenge and measured after 12 hrs by ELISA; assay type: functional, cell-based
RAW264.7 [7] = test: Antiinflammatory activity in mouse RAW264.7 cells assessed as inhibition of LPS-induced IL-1beta production at 5 to 10 uM pretreated for 2 hrs followed by LPS challenge and measured after 12 hrs by ELISA; assay type: functional, cell-based
RAW264.7 [8] = test: Antiinflammatory activity in mouse RAW264.7 cells assessed as inhibition of LPS-induced MIP-1beta production at 5 to 10 uM pretreated for 2 hrs followed by LPS challenge and measured after 12 hrs by ELISA; assay type: functional, cell-based
[9] = target: Transcription factor p65 (Mus musculus) (UniProt Q04207); test: Inhibition of LPS-induced NF-kappaB p65 translocation in mouse RAW264.7 cells at 5 to 10 uM pretreated for 2 hrs followed by LPS challenge measured after 12 hrs by DAPI staining based fluorescence microscopic analysis; assay type: cell-based
Sequence of Transcription factor p65 (Mus musculus) (Q04207 whole entry): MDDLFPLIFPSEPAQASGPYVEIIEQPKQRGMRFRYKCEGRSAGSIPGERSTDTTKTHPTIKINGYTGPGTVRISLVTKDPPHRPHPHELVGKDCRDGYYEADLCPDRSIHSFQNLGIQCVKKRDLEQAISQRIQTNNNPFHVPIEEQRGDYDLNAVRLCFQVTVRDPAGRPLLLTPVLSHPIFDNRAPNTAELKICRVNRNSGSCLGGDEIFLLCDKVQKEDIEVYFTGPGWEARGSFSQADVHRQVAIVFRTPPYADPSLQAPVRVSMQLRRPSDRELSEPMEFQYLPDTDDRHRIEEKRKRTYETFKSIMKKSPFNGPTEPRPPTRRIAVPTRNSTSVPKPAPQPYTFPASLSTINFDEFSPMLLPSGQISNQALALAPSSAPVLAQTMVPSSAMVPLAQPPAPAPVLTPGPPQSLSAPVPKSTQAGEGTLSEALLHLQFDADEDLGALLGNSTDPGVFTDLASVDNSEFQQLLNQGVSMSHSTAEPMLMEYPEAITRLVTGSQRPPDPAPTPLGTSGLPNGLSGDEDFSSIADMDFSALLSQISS

RAW264.7 [10] = test: Antiinflammatory activity in mouse RAW264.7 cells assessed as increase in LPS-induced HO-1 protein level pretreated for 2 hrs followed by LPS challenge and measured after 12 hrs by Western blot analysis; assay type: functional, cell-based

Structure (SMILES)	IC50 (RAW264.7 [2])	IC50 (A549)	IC50 (SW1990)	Activity (RAW264.7 [1])	IC50 (HepG2)	IC50 (MDA-MB-231)	IC50 [3]	inhibition (RAW264.7 [4])	Activity (RAW264.7 [5])	inhibition (RAW264.7 [6])	inhibition (RAW264.7 [7])	inhibition (RAW264.7 [8])	inhibition [9]	Activity (RAW264.7 [10])
CC1=CC(=O)/C2=C(\CO)CC[C@@H]3[C@](C)(CC[C@@]34O[C@@H](/C=C(\C)CO)C[C@@H]4C)C[C@H]12	> 40 µM	> 40 µM	> 40 µM	Non-Toxic	> 40 µM	> 40 µM	–	–	–	–	–	–	–	–
CC(C)=C[C@H]1C[C@H](C)[C@]2(CC[C@]3(C)C[C@@H]4C(C)=CC(=O)/C4=C(\C(=O)O)[C@@H](O)C[C@H]32)O1	> 40 µM	> 40 µM	> 40 µM	Non-Toxic	> 40 µM	> 40 µM	–	–	–	–	–	–	–	–
CC(C)=C[C@H]1C[C@H](C)[C@]2(CC[C@]3(C)C[C@H]4[C@H](CC[C@@]4(C)O)/C(CO)=C\C[C@H]32)O1	> 40 µM	> 40 µM	> 40 µM	Non-Toxic	> 40 µM	> 40 µM	–	–	–	–	–	–	–	–
CC(C)=C[C@H]1C[C@H](C)[C@]2(CC[C@]3(C)C[C@@H]4C(C)=CC(=O)[C@H]4/C(C=O)=C\C[C@H]32)O1 [3-ANHYDRO-6-EPI-OPHIOBOLIN A]	5.1 µM	> 40 µM	> 40 µM	Non-Toxic	> 40 µM	> 40 µM	8.4 µM	Active	Active	Active	Active	Active	Active	Dose-dependent effect
CC(C)=C[C@H]1C[C@H](C)[C@]2(CC[C@]3(C)C[C@@H]4C(C)=CC(=O)[C@H]4/C(C(=O)O)=C\C[C@H]32)O1	> 40 µM	> 40 µM	> 40 µM	Non-Toxic	> 40 µM	> 40 µM	–	–	–	–	–	–	–	–
CC1=CC(=O)[C@H]2/C(C=O)=C\C[C@@H]3[C@](C)(CC[C@@]34O[C@@H](/C=C(\C)CO)C[C@@H]4C)C[C@H]12	19 µM	> 40 µM	> 40 µM	Non-Toxic	> 40 µM	> 40 µM	–	–	–	–	–	–	–	–
COc1ccc2c(c1)c(CC(=O)O)c(C)n2C(=O)c1ccc(Cl)cc1 [INDOMETHACIN]	8.8 µM	–	–	–	–	–	–	–	–	–	–	–	–	–
CC1=CC(=O)[C@H]2/C(C)=C\C[C@@H]3[C@](C)(CC[C@@]34O[C@@H](/C=C(\C)CO)C[C@@H]4C)C[C@H]12	> 40 µM	> 40 µM	> 40 µM	Non-Toxic	> 40 µM	> 40 µM	–	–	–	–	–	–	–	–
CC(C)=C[C@H]1C[C@H](C)[C@]2(CC[C@]3(C)C[C@@H]4C(CO)=CC(=O)[C@H]4/C(C)=C\C[C@H]32)O1	> 40 µM	> 40 µM	> 40 µM	Non-Toxic	> 40 µM	> 40 µM	–	–	–	–	–	–	–	–

Further lines, with some results ahead:

IC50 (RAW264.7 [2])	Structure (SMILES)	IC50 (A549)	IC50 (SW1990)	Activity (RAW264.7 [1])	IC50 (HepG2)	IC50 (MDA-MB-231)	IC50 [3]	inhibition (RAW264.7 [4])	Activity (RAW264.7 [5])	inhibition (RAW264.7 [6])	inhibition (RAW264.7 [7])	inhibition (RAW264.7 [8])	inhibition [9]	Activity (RAW264.7 [10])
> 40 µM	CC1=CC(=O)/C2=C(\CO)[C@H](O)C[C@@H]3[C@](C)(CC[C@@]34O[C@@H](/C=C(\C)CO)C[C@@H]4C)C[C@H]12	> 40 µM	> 40 µM	Non-Toxic	> 40 µM	> 40 µM	–	–	–	–	–	–	–	–
20 µM	CC(C)=C[C@H]1C[C@H](C)[C@]2(CC[C@]3(C)C[C@@H]4C(C)=CC(=O)/C4=C(\CO)[C@H](O)C[C@H]32)O1	> 40 µM	> 40 µM	Non-Toxic	> 40 µM	> 40 µM	–	–	–	–	–	–	–	–
19 µM	CC1=CC(=O)/C2=C(\CO)[C@@H](O)C[C@@H]3[C@](C)(CC[C@@]34O[C@@H](/C=C(\C)CO)C[C@@H]4C)C[C@H]12	> 40 µM	> 40 µM	Non-Toxic	> 40 µM	> 40 µM	–	–	–	–	–	–	–	–
6.7 µM	CC(C)=C[C@H]1C[C@H](C)[C@]2(CC[C@]3(C)C[C@@H]4C(C)=CC(=O)/C4=C(\CO)[C@@H](O)C[C@H]32)O1	> 40 µM	> 40 µM	Non-Toxic	> 40 µM	> 40 µM	–	–	–	–	–	–	–	–
